In brackets after ≈: the same amount, converted by molar mass. Activity calls are given as the source filed them. The rule behind the calls is not given here.
Experiments:
U-937 = assay: Antiproliferative activity against human U-937 cells incubated for 96 hrs by MTT assay; type: functional, cell-based; settings: U-937, 96 h
[1] = Toxicity in BALB/c mouse assessed as change in blood WBC administered at 500 mg/kg, po for 14 days; type: organism-based; settings: in vivo, 336 h, time 14 day
[2] = Toxicity in BALB/c mouse assessed as change in blood HGB administered at 500 mg/kg, po for 14 days; type: organism-based; settings: in vivo, 336 h, time 14 day
[3] = Toxicity in BALB/c mouse assessed as change in blood HCT administered at 500 mg/kg, po for 14 days; type: organism-based; settings: in vivo, 336 h, time 14 day
Raji [4] = assay: Antiproliferative activity against human Raji cells assessed as inhibition of cell growth at 0.05 uM relative to control; type: functional
[5] = Lipophilicity, logP of compound; type: physicochemical; settings: octanol/water
[6] = Selectivity index ratio of IC50 for human HL7702 cells to IC50 for human Raji cells; type: toxicity; settings: HL7702 cells and Raji cells, read-out: Ratio IC50
[7] = Toxicity in NOD-SCID mouse xenografted with human Raji cells assessed as change in body weight at 30 mg/kg, po administered for 24 days; type: organism-based; settings: in vivo, 576 h, time 24 day
[8] = Toxicity in BALB/c mouse assessed as histopathological changes in liver administered at 500 mg/kg, po for 14 days; type: organism-based; settings: in vivo, 336 h, time 14 day
Raji [9] = assay: Rescue of cell viability in human Raji cells assessed cell growth inhibition rate at 0.0125 to 0.2 uM in presence of uridine; type: functional; settings: dose 0.0125-0.2 µM
A-375 = assay: Antiproliferative activity against human A-375 cells incubated for 96 hrs by MTT assay; type: functional, cell-based; settings: A-375, 96 h
[10] = Toxicity in BALB/c mouse assessed as lethal dose administered orally for 14 days; settings: in vivo, route po, time 14 day
[11] = Toxicity in BALB/c mouse assessed as change in blood RBC administered at 500 mg/kg, po for 14 days; type: organism-based; settings: in vivo, 336 h, time 14 day
Kasumi 1 = assay: Antiproliferative activity against human Kasumi 1 cells incubated for 96 hrs by MTT assay; type: functional, cell-based; settings: Kasumi 1, 96 h
HCT-116 [12] = assay: Antiproliferative activity against human HCT-116 cells assessed as inhibition of cell growth at 0.0125 to 0.2 uM; type: functional, cell-based; settings: dose 0.0125-0.2 µM
[13] = target: Voltage-gated inwardly rectifying potassium channel KCNH2 (Homo sapiens, UniProt Q12809); assay: Inhibition of human ERG; type: toxicity
[14] = Cytotoxicity against human NCM460 cells incubated for 96 hrs by MTT assay; type: toxicity, cell-based
Raji [15] = assay: Antiproliferative activity against human Raji cells assessed as inhibition of cell growth at 0.0125 uM relative to control; type: functional
[16] = target: T1, Dihydroorotate dehydrogenase (quinone), mitochondrial (Homo sapiens, UniProt Q02127); assay: Inhibition of human DHODH incubated for 30 mins
HCT-116 [17] = assay: Induction of cell cycle arrest in human HCT-116 cells assessed as accumulation cells in S-phase at 0.0625 uM for 24 hrs by PI/RNAse staining method (reference value: 30.2%); type: functional
HCT-116 [18] = assay: Induction of cell cycle arrest in human HCT-116 cells assessed as accumulation cells in S-phase at 0.25 uM for 24 hrs by PI/RNAse staining method (reference value: 30.2%); type: functional
[19] = Cytotoxicity against human HL7702 cells incubated for 96 hrs by MTT assay; type: toxicity, cell-based, L02
[20] = Cytotoxicity against human HCoEpiC cells incubated for 96 hrs by MTT assay; type: toxicity, cell-based
Raji [21] = assay: Antiproliferative activity against human Raji cells assessed as inhibition of cell growth; type: functional, cell-based; settings: dose 0.0125-0.2 µM
HCT-116 [22] = assay: Antitumor activity against human HCT-116 cells xenografted in NOD-SCID mouse assessed as tumor growth inhibition at 30 mg/kg, po administered for 24 days relative to control; type: functional; settings: HCT-116, 576 h, time 24 day, read-out: TGI
[23] = Toxicity in NOD-SCID mouse xenografted with human Raji cells assessed as death at 30 mg/kg, po administered for 24 days; type: organism-based; settings: in vivo, 576 h, time 24 day
[24] = Toxicity in BALB/c mouse assessed as histopathological changes in lung administered at 500 mg/kg, po for 14 days; type: organism-based; settings: in vivo, 336 h, time 14 day
[25] = Toxicity in BALB/c mouse assessed as change in blood lymphocytes administered at 500 mg/kg, po for 14 days; type: organism-based, Lymphocyte; settings: in vivo, 336 h, time 14 day
[26] = Toxicity in BALB/c mouse assessed as histopathological changes in spleen administered at 500 mg/kg, po for 14 days; type: organism-based; settings: in vivo, 336 h, time 14 day
Raji [27] = assay: Induction of cell cycle arrest in human Raji cells assessed as accumulation cells in S-phase at 0.0625 uM for 24 hrs by PI/RNAse staining method (reference value: 42.8%); type: functional
[28] = Toxicity in BALB/c mouse assessed as change in blood neutrophil administered at 500 mg/kg, po for 14 days; type: organism-based; settings: in vivo, 336 h, time 14 day
[29] = Toxicity in BALB/c mouse assessed as change in blood PLT administered at 500 mg/kg, po for 14 days; type: organism-based; settings: in vivo, 336 h, time 14 day
[30] = Toxicity in BALB/c mouse assessed as change in blood RDW administered at 500 mg/kg, po for 14 days; type: organism-based; settings: in vivo, 336 h, time 14 day
KG-1 = assay: Antiproliferative activity against human KG-1 cells incubated for 96 hrs by MTT assay; type: functional, cell-based; settings: KG-1, 96 h
[31] = target: T1, Dihydroorotate dehydrogenase (quinone), mitochondrial; assay: Inhibition of human DHODH at 100 nM for 30 mins relative to control
Raji [32] = assay: Antitumor activity against human Raji cells xenografted in NOD-SCID mouse assessed as tumor growth inhibition at 30 mg/kg, po administered for 24 days relative to control; type: functional; settings: 576 h, time 24 day, read-out: TGI
Raji [33] = assay: Induction of cell cycle arrest in human Raji cells assessed as accumulation cells in S-phase at 0.25 uM for 24 hrs by PI/RNAse staining method (reference value: 42.8%); type: functional
[34] = Toxicity in BALB/c mouse assessed as change in blood MCHC administered at 500 mg/kg, po for 14 days; type: organism-based; settings: in vivo, 336 h, time 14 day
HCT-116 [35] = assay: Induction of cell cycle arrest in human HCT-116 cells assessed as accumulation cells in S-phase at 0.125 uM for 24 hrs by PI/RNAse staining method (reference value: 30.2%); type: functional
[36] = Toxicity in BALB/c mouse assessed as change in blood MPV administered at 500 mg/kg, po for 14 days; type: organism-based; settings: in vivo, 336 h, time 14 day
Raji [37] = assay: Antiproliferative activity against human Raji cells incubated for 96 hrs by MTT assay; type: functional, cell-based
[38] = target: T1, Dihydroorotate dehydrogenase (quinone), mitochondrial; assay: Inhibition of human DHODH at 1 uM for 30 mins relative to control
Raji [39] = assay: Induction of cell cycle arrest in human Raji cells assessed as accumulation cells in S-phase at 0.125 uM for 24 hrs by PI/RNAse staining method (reference value: 42.8%); type: functional
Raji [40] = assay: Antiproliferative activity against human Raji cells assessed as inhibition of cell growth at 0.1 uM relative to control; type: functional
Raji [41] = assay: Antiproliferative activity against human Raji cells assessed as inhibition of cell growth at 0.2 uM relative to control; type: functional
[42] = Toxicity in BALB/c mouse assessed as histopathological changes in kidney administered at 500 mg/kg, po for 14 days; type: organism-based; settings: in vivo, 336 h, time 14 day
HCT-116 [43] = assay: Antiproliferative activity against human HCT-116 cells incubated for 96 hrs by MTT assay; type: functional, cell-based; settings: HCT-116, 96 h
[44] = Toxicity in BALB/c mouse assessed as decrease in alkaline phosphatase administered at 500 mg/kg, po for 14 days; type: organism-based; settings: in vivo, 336 h, time 14 day
Raji [45] = assay: Antiproliferative activity against human Raji cells assessed as inhibition of cell growth at 0.025 uM relative to control; type: functional
[46] = Toxicity in BALB/c mouse assessed as change in blood MCH administered at 500 mg/kg, po for 14 days; type: organism-based; settings: in vivo, 336 h, time 14 day
SUD4 = assay: Antiproliferative activity against human SU-DHL-4 cells incubated for 96 hrs by MTT assay; type: functional, cell-based; settings: SU-DHL-4, 96 h
[47] = Aqueous solubility of compound; type: physicochemical; settings: buffer
[48] = Toxicity in BALB/c mouse assessed as change in blood MCV administered at 500 mg/kg, po for 14 days; type: organism-based; settings: in vivo, 336 h, time 14 day
Mus musculus = assay: Immunosuppressive activity in NOD-SCID mouse xenografted with human HCT-116 cells at 1.5 mg/kg, po for 21 days; type: functional, organism-based; settings: time 21.0 day
[49] = Toxicity in NOD-SCID mouse xenografted with human HCT-116 cells assessed as splenomegaly at 1.5 mg/kg, po administered for 21 days; type: organism-based; settings: in vivo, 504 h, time 21 day
[50] = Toxicity in NOD-SCID mouse xenografted with human HCT-116 cells assessed as change in body weight at 1.5 mg/kg, po administered for 24 days; type: organism-based; settings: in vivo, 576 h, time 24 day
Raji [51] = assay: animal or person; settings: Mus musculus, po, 576 h, read-out: TGI
Description: Antitumor activity against human Raji cells xenografted in NOD-SCID mouse assessed as tumor growth inhibition at 1.5 mg/kg, po administered for 24 days relative to control

HCT-116 [52] = assay: Antitumor activity against human HCT-116 cells xenografted in NOD-SCID mouse assessed as tumor growth inhibition at 1.5 mg/kg, po administered for 24 days relative to control; type: functional; settings: HCT-116, 576 h, time 24 day, read-out: TGI
[53] = Toxicity in NOD-SCID mouse xenografted with human Raji cells assessed as change in body weight at 1.5 mg/kg, po administered for 24 days; type: organism-based; settings: in vivo, 576 h, time 24 day
[54] = Toxicity in NOD-SCID mouse xenografted with human Raji cells assessed as death at 1.5 mg/kg, po administered for 24 days; type: organism-based; settings: in vivo, 576 h, time 24 day

T1 sequence (Q02127 whole entry): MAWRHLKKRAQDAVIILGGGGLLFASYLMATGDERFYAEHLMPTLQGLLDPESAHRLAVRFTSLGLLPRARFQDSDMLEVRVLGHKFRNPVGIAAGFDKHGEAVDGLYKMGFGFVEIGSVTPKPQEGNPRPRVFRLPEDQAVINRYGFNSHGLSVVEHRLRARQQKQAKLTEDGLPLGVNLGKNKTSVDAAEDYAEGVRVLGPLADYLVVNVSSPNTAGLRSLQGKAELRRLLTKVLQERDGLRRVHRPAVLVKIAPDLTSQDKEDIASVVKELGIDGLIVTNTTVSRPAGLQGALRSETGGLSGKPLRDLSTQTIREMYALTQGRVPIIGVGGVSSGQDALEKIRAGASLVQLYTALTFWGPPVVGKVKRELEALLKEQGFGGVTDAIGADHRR
Chain of Voltage-gated inwardly rectifying potassium channel KCNH2 (Q12809 whole entry): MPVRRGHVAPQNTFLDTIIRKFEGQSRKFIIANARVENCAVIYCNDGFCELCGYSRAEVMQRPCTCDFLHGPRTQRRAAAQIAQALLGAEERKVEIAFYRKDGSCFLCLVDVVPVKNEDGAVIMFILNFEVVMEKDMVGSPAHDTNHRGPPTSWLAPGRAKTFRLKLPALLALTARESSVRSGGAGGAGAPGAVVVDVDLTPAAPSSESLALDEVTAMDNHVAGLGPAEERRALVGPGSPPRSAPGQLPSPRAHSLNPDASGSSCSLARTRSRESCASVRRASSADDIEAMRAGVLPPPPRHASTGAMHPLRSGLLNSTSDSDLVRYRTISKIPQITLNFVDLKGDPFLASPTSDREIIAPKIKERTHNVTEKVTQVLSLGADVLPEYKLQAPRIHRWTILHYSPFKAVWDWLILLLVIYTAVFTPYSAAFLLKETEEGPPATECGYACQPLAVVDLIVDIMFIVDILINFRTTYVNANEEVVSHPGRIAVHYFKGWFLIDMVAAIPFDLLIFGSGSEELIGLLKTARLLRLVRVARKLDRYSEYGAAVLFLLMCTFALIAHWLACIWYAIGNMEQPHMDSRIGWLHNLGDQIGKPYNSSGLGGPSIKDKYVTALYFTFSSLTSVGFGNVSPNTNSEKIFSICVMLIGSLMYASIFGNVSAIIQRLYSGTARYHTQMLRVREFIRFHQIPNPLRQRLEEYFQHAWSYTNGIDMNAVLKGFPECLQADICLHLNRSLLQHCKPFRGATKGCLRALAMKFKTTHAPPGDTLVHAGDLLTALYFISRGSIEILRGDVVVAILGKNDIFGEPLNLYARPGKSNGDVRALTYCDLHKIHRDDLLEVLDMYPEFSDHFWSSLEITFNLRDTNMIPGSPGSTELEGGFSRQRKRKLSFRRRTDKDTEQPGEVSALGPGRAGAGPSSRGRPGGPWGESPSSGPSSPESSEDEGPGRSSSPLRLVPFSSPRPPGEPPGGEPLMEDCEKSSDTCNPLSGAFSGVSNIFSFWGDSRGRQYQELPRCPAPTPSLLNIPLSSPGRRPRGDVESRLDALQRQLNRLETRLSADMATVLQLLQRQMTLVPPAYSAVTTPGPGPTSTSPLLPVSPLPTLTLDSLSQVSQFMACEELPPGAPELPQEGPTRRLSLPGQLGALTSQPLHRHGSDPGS

## C/C(O)=C(\C#N)C(=O)Nc1cc(O[C@@H](C)C(F)(F)F)c(C(=O)c2ccccc2Cl)cc1F
U-937
  IC50: 220 nM
[1]
  Activity: Non-Toxic
[2]
  Activity: Non-Toxic
[3]
  Activity: Non-Toxic
Raji [4]
  inhibition at 0.05 µM: 36.8%
[5]
  logP: 2.49
[6]
  selectivity ratio: 18.3
[7]
  Activity: Non-Toxic
[8]
  Activity: Toxic
Raji [9]
  inhibition (INH): <5%
A-375
  IC50: 250 nM
[10]
  LD50 at 336 h: 500 mg/kg
[11]
  Activity: Non-Toxic
Kasumi 1
  IC50: 100 nM
HCT-116 [12]
  Activity: Active
[13]
  IC50: > 100000 nM
[14]
  IC50 at 96 h: 14200 nM
Raji [15]
  inhibition at 0.0125 µM: 17%
[16]
  IC50: 10.9 nM
HCT-116 [17]
  Activity: 44.6%
HCT-116 [18]
  Activity: 60.6%
[19]
  IC50 at 96 h: 1100 nM
[20]
  IC50 at 96 h: 6800 nM
Raji [21]
  inhibition: Dose-Dependent Effect
HCT-116 [22]
  inhibition in vivo at 30 mg/kg: 42.1%
[23]
  Activity: Non-Toxic
[24]
  Activity: Non-Toxic
[25]
  Activity: Non-Toxic
[26]
  Activity: Non-Toxic
Raji [27]
  Activity: 54.2%
[28]
  Activity: Non-Toxic
[29]
  Activity: Non-Toxic
[30]
  Activity: Non-Toxic
KG-1
  IC50: 430 nM
[31]
  inhibition: 84.2%
Raji [32]
  inhibition in vivo at 30 mg/kg: 58.3%
Raji [33]
  Activity: 67.1%
[34]
  Activity: Non-Toxic
HCT-116 [35]
  Activity: 58.9%
[36]
  Activity: Non-Toxic
Raji [37]
  IC50: 60 nM
[38]
  inhibition: 98.4%
Raji [39]
  Activity: 60.6%
Raji [40]
  inhibition at 0.1 µM: 52.2%
Raji [41]
  inhibition at 0.2 µM: 60.9%
[42]
  Activity: Non-Toxic
HCT-116 [43]
  IC50: 140 nM
[44]
  Activity: Non-Toxic
Raji [45]
  inhibition at 0.025 µM: 20.7%
[46]
  Activity: Non-Toxic
SUD4
  IC50: 750 nM
[47]
  solubility: 61.7 µg/mL (≈ 131 µM)
[48]
  Activity: Non-Toxic

## CCn1c(CO)nn(-c2cc(O[C@@H](C)C(F)(F)F)c(C(=O)Nc3c(F)cccc3Cl)cc2F)c1=O
Mus musculus
  Activity: Active
[49]
  Activity: Toxic
[50]
  Activity: Toxic
Raji [51]
  inhibition in vivo at 1.5 mg/kg: 71.4%
HCT-116 [52]
  inhibition in vivo at 1.5 mg/kg: 44.4%
[53]
  Activity: Non-Toxic
[54]
  Activity: Non-Toxic

From ChEMBL document CHEMBL5352423, “Discovery of potent human dihydroorotate dehydrogenase inhibitors based on a benzophenone scaffold” (Eur J Med Chem, 2022)
